Reference: patent publication US11484607B2, “PSMA-targeted NIR dyes and their uses” (On Target Laboratories, LLC, priority 2015, dated 2022)

What was measured:
PSMA = biological target: T1, PSMA (Homo sapiens, UniProt Q04609); assay: Relative binding affinity of DUPA-NIR conjugates with respect to DUPA-FITC on 22Rv1 cells, flow cytometry; conditions: for Kd: 1 h at 37° C., 100 nM DUPA-FITC; for affinity for PSMA (in words): in vitro binding affinity data
T1 construct: host or cells: 22Rv1 human prostate cancer cells
T1 sequence (Q04609 whole entry): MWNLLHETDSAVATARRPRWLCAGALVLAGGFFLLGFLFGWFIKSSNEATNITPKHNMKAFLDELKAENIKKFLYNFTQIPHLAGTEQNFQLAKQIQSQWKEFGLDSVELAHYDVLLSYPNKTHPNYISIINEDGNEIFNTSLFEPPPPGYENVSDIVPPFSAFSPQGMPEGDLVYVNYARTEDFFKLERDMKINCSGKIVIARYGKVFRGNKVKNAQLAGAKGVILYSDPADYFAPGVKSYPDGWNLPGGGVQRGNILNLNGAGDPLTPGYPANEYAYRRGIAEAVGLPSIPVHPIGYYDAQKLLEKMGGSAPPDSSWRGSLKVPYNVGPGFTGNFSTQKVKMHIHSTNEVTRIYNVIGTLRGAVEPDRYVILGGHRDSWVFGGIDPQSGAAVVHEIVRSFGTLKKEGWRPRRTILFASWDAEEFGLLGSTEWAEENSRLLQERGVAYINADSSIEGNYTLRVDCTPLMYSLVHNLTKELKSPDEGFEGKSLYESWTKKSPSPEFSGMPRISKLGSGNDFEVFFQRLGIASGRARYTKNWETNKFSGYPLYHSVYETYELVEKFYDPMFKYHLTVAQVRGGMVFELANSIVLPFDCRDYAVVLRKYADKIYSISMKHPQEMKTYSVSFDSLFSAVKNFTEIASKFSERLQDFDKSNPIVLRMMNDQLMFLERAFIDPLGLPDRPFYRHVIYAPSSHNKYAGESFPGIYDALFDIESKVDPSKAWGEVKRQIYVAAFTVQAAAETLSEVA
Procedure: (§1) FIG. 3—Relative binding affinities of DUPA-NIR conjugates 1-9 with respect to DUPA-FITC (14). PSMA-positive 22Rv1 human prostate cancer cells were incubated for 1 h at 37° C. in the presence of 100 nM DUPA-FITC with increasing concentrations of DUPA-NIR conjugates. […] Cell bound fluorescence was assayed as using flow cytometry.
as §1, with “6—Relative” for “3—Relative”, “with aromatic amino acids linkers” for “1-9”
as §1, with “3 Relative” for “3—Relative”
in vitro studies. […] PSMA-positive 22Rv1 human prostate cancer cells were incubated for 1 h at 37° C. in the presence of 100 nM DUPA-FITC with increasing concentrations of DUPA-NIR conjugates. […] Cell bound fluorescence was assayed as using flow cytometry.
PSMA-positive 22Rv1 human prostate cancer cells were incubated for 1 h at 37° C. in the presence of 100 nM DUPA-FITC with increasing concentrations of DUPA-NIR conjugates. […] Cell bound fluorescence was assayed as using flow cytometry.
as §1, with “24: Relative” for “3—Relative”, “conjugates” for “conjugates 1-9”
PSMA-positive 22Rv1 human prostate cancer cells were incubated for 1 h at 37° C. in the presence of 100 nM DUPA-FITC with increasing concentrations of DUPA-NIR conjugates. […] Cell bound fluorescence was assayed as using flow cytometry
Cancer cells were incubated for 1 h at 37° C. in the presence of 100 nM DUPA-FITC with increasing concentrations of compound 15. […] Cell bound fluorescence was assayed as using flow cytometry.

[1] = test system: human prostate tumor xenografts (22Rv1 cells); assay: Tissue biodistribution and tumor-to-tissue fluorescence ratio of DUPA-NIR conjugates, IVIS imaging; type: in vivo, mice; conditions: 2 h after tail vein injection
Procedure: In vivo studies. More specifically, biodistribution of DUPA-NIR conjugates 1-9 was monitored using fluorescence imaging of mice bearing human prostate tumor xenografts (22Rv1 cells). Male nude mice with 22Rv1 tumor xenografts were injected with DUPA-NIR dye conjugates via tail vein. The mice were euthanized 2 h after administration of the DUPA-NIR dye conjugate, selected tissues were harvested, and tissues were imaged with IVIS imager (ex=745 nm, em=ICG, exposure time=1 s).
The conjugates were also tested to show the ratio of tumor-to-tissue fluorescence. […] After imaging, fluorescence within a Region of interest (ROI) was measured for each tissue using In Vivo imaging software and tumor-to-tissue fluorescence was then calculated
(§2) in vivo studies. […] Male nude mice with 22Rv1 tumor xenografts were injected with DUPA-NIR dye conjugates via tail vein. The mice were euthanized 2 h after administration of the DUPA-NIR dye conjugate, selected tissues were harvested, and tissues were imaged with IVIS imager (ex=745 nm, em=ICG, exposure time=1 s). After imaging, fluorescence within a Region of interest (ROI) was measured for each tissue using In Vivo imaging software and tumor-to-tissue fluorescence was then calculated.
Male nude mice with 22Rv1 tumor xenografts were injected with DUPA-NIR dye conjugates via tail vein. The mice were euthanized 2 h after administration of the DUPA-NIR dye conjugate, selected tissues were harvested, and tissues were imaged with IVIS imager (ex=745 nm, em=ICG, exposure time=1 s). After imaging, fluorescence within a Region of interest (ROI) was measured for each tissue using In Vivo imaging software and tumor-to-tissue fluorescence was then calculated.
as §2, with “In vivo” for “in vivo”

[2] = test system: 22Rv1 human prostate tumor xenograft; assay: Time dependent whole-body fluorescence imaging of DUPA-NIR conjugates, IVIS imager; type: in vivo, mouse; conditions: 6 or 20 nmol, imaged at different time intervals
Procedure: 22Rv1 human prostate tumor xenograft bearing mouse was injected with 20 nmol of 15 and imaged with IVIS imager (ex=745 nm, em=ICG, exposure time=1 s) at different time intervals.
22Rv1 human prostate tumor xenograft bearing mouse was injected with 20 nmol of 23 and imaged with IVIS imager (ex=745 nm, em=ICG, exposure time=1 s) at different time intervals.
22Rv1 human prostate tumor xenograft bearing mouse was injected with 20 nmol of 25 and imaged with IVIS imager (ex=745 nm, em=ICG, exposure time=1 s) at different time intervals
22Rv1 human prostate tumor xenograft bearing mouse was injected with 6 nmol of 35 and imaged with IVIS imager (ex=745 nm, em=ICG, exposure time=1 s) at different time intervals.
22Rv1 human prostate tumor xenograft bearing mouse was injected with 6 nmol of 36 and imaged with IVIS imager (ex=745 nm, em=ICG, exposure time=1 s) at different time intervals.
22Rv1 human prostate tumor xenograft bearing mouse was injected with 20 nmol of 39 and imaged with IVIS imager (ex=745 nm, em=ICG, exposure time=1 s) at different time intervals.
22Rv1 human prostate tumor xenograft bearing mouse was injected with 20 nmol of 40 and imaged with IVIS imager (ex=745 nm, em=ICG, exposure time=1 s) at different time intervals.
22Rv1 human prostate tumor xenograft bearing mouse was injected with 20 nmol of 41 and imaged with IVIS imager (ex=745 nm, em=ICG, exposure time=1 s) at different time intervals.
FIG. 25: Overlay of whole body or half body fluorescence image over white light images after adjusting the threshold. 22Rv1 human prostate tumor xenograft bearing mouse was injected with 20 nmol of 54 and imaged with IVIS imager (ex=745 nm, em=ICG, exposure time=1 s) at different time intervals.
22Rv1 human prostate tumor xenograft bearing mouse was injected with 20 nmol of 55 and imaged with IVIS imager (ex=745 nm, em=ICG, exposure time=1 s) at different time intervals.
22Rv1 human prostate tumor xenograft bearing mouse was injected with 20 nmol of 56 and imaged with IVIS imager (ex=745 nm, em=ICG, exposure time=1 s) at different time intervals.
22Rv1 human prostate tumor xenograft bearing mouse was injected with 20 nmol of 57 and imaged with IVIS imager (ex=745 nm, em=ICG, exposure time=1 s) at different time intervals
22Rv1 human prostate tumor xenograft bearing mouse was injected with 20 nmol of 58 and imaged with IVIS imager (ex=745 nm, em=ICG, exposure time=1 s) at different time intervals
22Rv1 human prostate tumor xenograft bearing mouse was injected with 20 nmol of 60 and imaged with IVIS imager (ex=745 nm, em=ICG, exposure time=1 s) at different time intervals.
in vivo studies. […] 22Rv1 human prostate tumor xenograft bearing mouse was injected with 20 nmol of 63 and imaged with IVIS imager (ex=745 nm, em=ICG, exposure time=1 s) at different time intervals.
22Rv1 human prostate tumor xenograft bearing mouse was injected with 6 nmol of 63 and imaged with IVIS imager (ex=745 nm, em=ICG, exposure time=1 s) at different time intervals.
22Rv1 human prostate tumor xenograft bearing mouse was injected with 20 nmol of 64 and imaged with IVIS imager (ex=745 nm, em=ICG, exposure time=1 s) at different time intervals.
22Rv1 human prostate tumor xenograft bearing mouse was injected with 6 nmol of 15 and imaged with IVIS imager (ex=745 nm, em=ICG, exposure time=1 s) at different time intervals.

basophils = assay: Basophil activation test (Flow CAST) in human blood samples; type: cell-based
Procedure: Tolerability Studies: The blood samples were collected into hirudin tubes and used within an hour of collection. For each donor, 4 different tubes were prepared for allergen, positive controls, and negative control. Samples were analyzed using Flow CAST® high sensitivity Basophil Activation Test (BAT). Briefly, stimulation buffer (100 μL, background) or anti-FcεER antibody (100 μL) or fMLP (100 μL) or OTL78 (75 μM in 100 μL of saline) was added to tubes containing stimulation buffer (200 μL). 100 μL of blood was added to each tube and mixed gently. After adding staining reagent (40 μL) containing anti-CD63-CD203c-PE-DY647 and anti-CCR3-PE, each tube was mixed gently and incubated for 15 minutes at 37° C. Lysing reagent (2 mL) was added to each tube, mixed gently, incubated for 5-10 minutes at room temperature, and centrifuged for 5 minutes at 500×g. The supernatant was discarded and the cells were re-suspended in wash buffer (900 μL) and analyzed using flow cytometry. CD63-CD203c-PE-DY647+/CCR3-PE+ cell population considered as the activated basophils.

[3] = conjugates with variable length spacers

Kd (PSMA; [3]) [nM] | affinity for PSMA (in words) (PSMA) | Structure (SMILES) | fluorescence intensity in the tumor / tumor accumulation [1] | tumor-to-background ratio (TBR), in words [1] | other results
15.2 | very high affinity | CC1(C)C(/C=C/C2=C(Oc3ccc(C[C@H](NC(=O)CCCCCCCNC(=O)CC[C@H](NC(=O)N[C@@H](CCC(=O)O)C(=O)O)C(=O)O)C(=O)O)cc3)C(=C/C=C3/N(CCCCS(=O)(=O)O)c4ccc(S(=O)(=O)O)cc4C3(C)C)/CCC2)=[N+](CCCCS(=O)(=O)[O-])c2ccc(S(=O)(=O)O)cc21 [Compound 4, DUPA-EAOA-Tyr-S0456] | higher fluorescence intensity | best | –
35.7 | – | CC1(C)C(/C=C/C2=C(Oc3ccc(C[C@H](NC(=O)CCCCCCCNC(=O)[C@H](Cc4ccccc4)NC(=O)[C@H](Cc4ccccc4)NC(=O)CC[C@H](NC(=O)N[C@@H](CCC(=O)O)C(=O)O)C(=O)O)C(=O)O)cc3)C(=C/C=C3/N(CCCCS(=O)(=O)O)c4ccc(S(=O)(=O)O)cc4C3(C)C)/CCC2)=[N+](CCCCS(=O)(=O)[O-])c2ccc(S(=O)(=O)O)cc21 [Compound 6] | lower | second | –
26.8 | – | CC1(C)C(/C=C/C2=C(Oc3ccc(C[C@H](NC(=O)CCCCCCCNC(=O)[C@H](Cc4ccccc4)NC(=O)[C@H](Cc4ccccc4)NC(=O)C[C@H](NC(=O)CC[C@H](NC(=O)N[C@@H](CCC(=O)O)C(=O)O)C(=O)O)C(=O)O)C(=O)O)cc3)C(=C/C=C3/N(CCCCS(=O)(=O)O)c4ccc(S(=O)(=O)O)cc4C3(C)C)/CCC2)=[N+](CCCCS(=O)(=O)[O-])c2ccc(S(=O)(=O)O)cc21 [Compound 7] | lower | third best | –
– | very high affinity | CC1(C)C(/C=C/C2=C(Oc3ccc(C[C@H](NC(=O)[C@H](Cc4ccccc4)NC(=O)[C@H](Cc4ccccc4)NC(=O)CCCCCCCNC(=O)CC[C@H](NC(=O)N[C@@H](CCC(=O)O)C(=O)O)C(=O)O)C(=O)O)cc3)C(=C/C=C3/N(CCCCS(=O)(=O)O)c4ccc(S(=O)(=O)O)cc4C3(C)C)/CCC2)=[N+](CCCCS(=O)(=O)[O-])c2ccc(S(=O)(=O)O)cc21 [Compound 23] | – | – | Kd (PSMA; conjugates with aromatic linkers): 7.5 nM; whole-body imaging [2]: very good whole-body imaging data within 2-4 hours
– | – | CC1(C)C(/C=C/C2=C(Oc3ccc(C[C@H](NC(=O)[C@H](CCCNC(=N)N)NC(=O)[C@H](CCCNC(=N)N)NC(=O)CCCCCCCNC(=O)CC[C@H](NC(=O)N[C@@H](CCC(=O)O)C(=O)O)C(=O)O)C(=O)O)cc3)C(=C/C=C3/N(CCCCS(=O)(=O)O)c4ccc(S(=O)(=O)O)cc4C3(C)C)/CCC2)=[N+](CCCCS(=O)(=O)[O-])c2ccc(S(=O)(=O)O)cc21 [Compound 39] | – | – | whole-body imaging [2]: very good whole-body imaging
– | low binding affinity | CC1(C)C(=CC=C2CCCC(C=CC3=[N+](CCCCS(=O)(=O)[O-])c4ccc(S(=O)(=O)O)cc4C3(C)C)=C2Oc2ccc(CC(NC(=O)CC(NC(=O)C(Cc3ccccc3)NC(=O)C(Cc3ccccc3)NC(=O)CCCCCCCNC(=O)CCC(NC(=O)NC(CCC(=O)O)C(=O)O)C(=O)O)C(=O)O)C(=O)O)cc2)N(CCCCS(=O)(=O)O)c2ccc(S(=O)(=O)O)cc21 (stereo not drawn) [Compound 49] | very high tumor accumulation (high fluorescence intensity) | good | –
– | – | CSCC[C@H](NC=O)C(=O)N[C@@H](CC(C)C)C(=O)N[C@@H](Cc1ccccc1)C(=O)O [fMLP, N-formylmethionyl-leucyl-phenylalanine] | – | – | positive response (% activated basophils) (basophils; FIG. 47E): 73.5%; stimulated index (basophils; FIG. 47E, ≥2 considered positive response): 29.5; Percent of basophile activation, Avg (basophils; average of 3 healthy subjects): 60%; Percent of basophile activation, Subject 1 (basophils; healthy subjects, OTL78 75 μM): 73.5%; Percent of basophile activation, Subject 2 (basophils; healthy subjects, OTL78 75 μM): 55.9%; Percent of basophile activation, Subject 3 (basophils; healthy subjects, OTL78 75 μM): 50.6%; SI = Avg/background (basophils; stimulation index, ≥2 considered positive response): 23.1
